From patent US9844566B2, “Pharmaceutical composition for the preparation of infusion solutions of antimicrobial preparations, its production process (variations)” (priority 2011, dated 2017)

Experiments:
Assay type in all cases: in vivo
[1] = tested on: Staphylococcus aureus (ATCC No 25923 F-49); assay: Experimental sepsis model in mice, S. aureus: survival on the seventh day; details: for Mice survival rate on the 7th day of infection, S. aureus: mice infected i.v. 10^10 CFU/mouse, i.v. treatment daily for 3 days; for Mice survival on the 7th day, absolute values (survival rate/infected animals), S. aureus: survivors/infected mice
Description: (§1) Determination of therapeutic efficiency of antimicrobial agents was done on experimental models of sepsis and methods for statistical treatment of the obtained results (χ^2) according to [R19 and R20].
(§2) Microgerms. Staphylococcus aureus (ATCC No 25923 F-49), Escherichia coli (ATCC No25922 F-50), Pseudomonas aeruginosa (ATCC No 27853 F-51), Candida albicans (ATCC No 24433).
(§3) Animals. The experiments were carried out on hybrid mice (CBA×C57Black/6)CBF1 according to the “Regulations for test animals use” (USSR Ministry of health, order supplement No 755 from Dec. 8, 1977).
(§4) Experimental sepsis models. Tested mice were injected intravenously 0.8 ml of P. aeruginosa daily culture suspension with a dosage 5×10^8 CFU/mouse or S. aureus daily culture suspension with a dosage 10^10 CFU/mouse or E. coli daily culture suspension with a dosage 8×10^8 CFU/mouse or Candida albicans daily culture suspension with a dosage 10^10 CFU/mouse. Mice of a control group were injected the 0.9% solution of NaCl or 5% dextrose solution in the volume of 0.8 ml.
(§5) In a day after being infected, during 3 days, the tested mice were daily intravenously injected with the indicated above antimicrobial preparations, dissolved in 0.9% solution of NaCl or in 5% dextrose solution, as well as their solutions prepared based on the pharmaceutical composition (as described hereinabove).
(§6) All beta-lactams were injected daily in the amount of 0.2 mg/mouse, amikacin sulfate in the amount of 2 mg/mouse daily, vancomycin in the amount of 1 mg/mouse daily, fosfomycin in the amount of 2 mg/mouse daily, and voriconazole in the amount of 0.1 mg/mouse contained in 0.5 ml of solution. Following the same order, the control group was injected with 0.9% NaCl solution or 5% dextrose solution, as well as water solutions of the pharmaceutical composition in the volume of 0.5 ml.
(§7) The antibacterial therapy efficiency was evaluated based on the number of surviving mice on the seventh day after being infected [R19, R20].
(§8) The obtained data shown in Tables 3 and 4 reflect the results of three independent experiments (at least 30 test animals were used for research of each inventive pharmaceutical preparation).

[2] = tested on: Escherichia coli (ATCC No25922 F-50); assay: Experimental sepsis model in mice, E. coli: survival on the seventh day; details: for Mice survival rate on the 7th day of infection, E. coli: mice infected i.v. 8×10^8 CFU/mouse, i.v. treatment daily for 3 days; for Mice survival on the 7th day, absolute values (survival rate/infected animals), E. coli: survivors/infected mice
Description: as §1, §2, §3, §4, §5, §6, §7, §8

[3] = tested on: Pseudomonas aeruginosa (ATCC No 27853 F-51); assay: Experimental sepsis model in mice, P. aeruginosa: survival on the seventh day; details: for Mice survival rate on the 7th day of infection, P. aeruginosa: mice infected i.v. 5×10^8 CFU/mouse, i.v. treatment daily for 3 days; for Mice survival on the 7th day, absolute values (survival rate/infected animals), P. aeruginosa: survivors/infected mice
Description: as §1, §2, §3, §4, §5, §6, §7, §8

[4] = tested on: Candida albicans (ATCC No 24433); assay: Experimental mycotic sepsis model in mice, Candida albicans: survival on the seventh day; details: for Mice survival rate on the 7th day of infection, Candida albicans: mice infected i.v. 10^10 CFU/mouse, i.v. treatment daily for 3 days; for Mice survival on the 7th day, absolute values (survival rate/infected animals), Candida albicans: survivors/infected mice
Description: as §1, §2, §3, §4, §5, §6, §7, §8

[5] = Table 4 (5% dextrose or Dextrose:Colloidal silica)
[6] = Table 3 (0.9% NaCl or NaCl:Colloidal silica)

Compound	Mice survival rate on the 7th day of infection, S. aureus [1, 5]	Mice survival on the 7th day, absolute values (survival rate/infected animals), S. aureus [1, 5]	Mice survival rate on the 7th day of infection, E. coli [2, 5]	Mice survival on the 7th day, absolute values (survival rate/infected animals), E. coli [2, 5]	Mice survival rate on the 7th day of infection, E. coli [2, 6]	Mice survival on the 7th day, absolute values (survival rate/infected animals), E. coli [2, 6]	Mice survival rate on the 7th day of infection, S. aureus [1, 6]	Mice survival on the 7th day, absolute values (survival rate/infected animals), S. aureus [1, 6]	Mice survival rate on the 7th day of infection, P. aeruginosa [3, 6]	Mice survival on the 7th day, absolute values (survival rate/infected animals), P. aeruginosa [3, 6]	Mice survival rate on the 7th day of infection, P. aeruginosa [3, 5]	Mice survival on the 7th day, absolute values (survival rate/infected animals), P. aeruginosa [3, 5]	Mice survival rate on the 7th day of infection, Candida albicans [4, 6]	Mice survival on the 7th day, absolute values (survival rate/infected animals), Candida albicans [4, 6]	Mice survival rate on the 7th day of infection, Candida albicans [4, 5]	Mice survival on the 7th day, absolute values (survival rate/infected animals), Candida albicans [4, 5]
ceftriaxone [Ceftriaxone/5% dextrose solution]	40.6%	(13/32)	45.2%	(14/31)	–	–	–	–	–	–	–	–	–	–	–	–
NCC[C@H](O)C(=O)N[C@@H]1C[C@H](N)[C@@H](O[C@H]2O[C@H](CN)[C@@H](O)[C@H](O)[C@H]2O)[C@H](O)[C@H]1O[C@H]1O[C@H](CO)[C@@H](O)[C@H](N)[C@H]1O.O=S(=O)(O)O.O=S(=O)(O)O [Amikacin sulfate/0.9% NaCl solution, amikacin sulfate]	–	–	46.7%	(14/30)	48.3%	(15/31)	–	–	–	–	–	–	–	–	–	–
CC(C)(O/N=C(\C(=O)N[C@@H]1C(=O)N2C(C(=O)[O-])=C(C[n+]3ccccc3)CS[C@H]12)c1csc(N)n1)C(=O)O [Ceftazidime/0.9% NaCl solution, ceftazidime]	40.0%	(12/30)	53.3%	(16/30)	48.4%	(15/31)	38.7%	(12/31)	46.7%	(14/30)	46.8%	(15/32)	–	–	–	–
aztreonam [Aztreonam/0.9% NaCl solution]	–	–	–	–	70.0%	(21/30)	–	–	67.7%	(21/31)	–	–	–	–	–	–
CN[C@H](CC(C)C)C(=O)N[C@H]1C(=O)N[C@@H](CC(N)=O)C(=O)N[C@H]2C(=O)N[C@H]3C(=O)N[C@H](C(=O)N[C@H](C(=O)O)c4cc(O)cc(O)c4-c4cc3ccc4O)[C@H](O)c3ccc(c(Cl)c3)Oc3cc2cc(c3O[C@@H]2O[C@H](CO)[C@@H](O)[C@H](O)[C@H]2O[C@H]2C[C@](C)(N)[C@H](O)[C@H](C)O2)Oc2ccc(cc2Cl)[C@H]1O [Vancomycin/0.9% NaCl solution, vancomycin]	77.5%	(31/40)	–	–	–	–	71.4%	(30/42)	–	–	–	–	–	–	–	–
C[C@@H](O)[C@H]1C(=O)N2C(C(=O)O)=C(S[C@@H]3CN[C@H](C(=O)N(C)C)C3)[C@H](C)[C@H]12 [Meropenem/0.9% NaCl solution, meropenem]	73.8%	(31/42)	78.0%	(32/41)	73.8%	(31/42)	70.9%	(22/31)	71.8%	(23/32)	74.4%	(32/43)	–	–	–	–
voriconazole [Voriconazole/0.9% NaCl solution]	–	–	–	–	–	–	–	–	–	–	–	–	45.1%	(14/31)	46.7%	(14/30)
CO/N=C(\C(=O)N[C@@H]1C(=O)N2C(C(=O)O)=C(COC(C)=O)CS[C@H]12)c1csc(N)n1 [Cefotaxime/0.9% NaCl solution, cefotaxime]	42.8%	(15/35)	43.7%	(14/32)	37.5%	(12/32)	43.7%	(14/32)	–	–	–	–	–	–	–	–
CO/N=C(\C(=O)N[C@@H]1C(=O)N2C(C(=O)[O-])=C(C[N+]3(C)CCCC3)CS[C@H]12)c1csc(N)n1 [Cefepime/0.9% NaCl solution, cefepime]	56.7%	(17/30)	54.4%	(17/31)	58.1%	(18/31)	46.7%	(14/30)	51.6%	(16/31)	50.0%	(15/30)	–	–	–	–
CC[C@H]1OC(=O)[C@H](C)[C@@H](O[C@H]2C[C@@](C)(OC)[C@@H](O)[C@H](C)O2)[C@H](C)[C@@H](O[C@@H]2O[C@H](C)C[C@H](N(C)C)[C@H]2O)[C@](C)(O)C[C@@H](C)CN(C)[C@H](C)[C@@H](O)[C@]1(C)O [Azithromycin/0.9% NaCl solution, azithromycin]	43.3%	(13/30)	–	–	–	–	43.3%	(13/30)	–	–	–	–	–	–	–	–
C[C@@H]1O[C@@H]1P(=O)(O)O [Fosfomycin/0.9% NaCl solution, fosfomycin]	43.7%	(14/32)	46.7%	(14/30)	43.3%	(13/30)	36.7%	(11/30)	30.0%	(9/30)	35.2%	(15/34)	–	–	–	–
